Read-outs that look alike come from different tables or passages of the source.
Key:
[1] = molecular target: T1, hA1AR (Homo sapiens, UniProt P30542); assay: Radioligand binding at hA1AR; conditions: for AR subtype selectivity in binding (in words): A1, A2A and A3 ARs compared
T1 sequence (P30542 1-326): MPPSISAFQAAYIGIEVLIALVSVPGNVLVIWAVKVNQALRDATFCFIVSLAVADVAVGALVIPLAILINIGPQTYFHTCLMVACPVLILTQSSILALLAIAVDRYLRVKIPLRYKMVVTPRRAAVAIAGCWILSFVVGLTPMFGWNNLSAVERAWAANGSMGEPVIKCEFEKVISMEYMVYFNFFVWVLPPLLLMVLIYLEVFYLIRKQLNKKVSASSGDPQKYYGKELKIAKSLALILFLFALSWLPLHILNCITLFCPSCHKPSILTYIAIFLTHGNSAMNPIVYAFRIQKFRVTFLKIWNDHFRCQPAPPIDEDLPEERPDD

[2] = molecular target: T1, hA1AR; format: cell-based; conditions: for Agonist efficacy at A1AR (in words): cyclic AMP assay, 10 μM
[3] = test system: mice; assay: 6 Hz minimal clonic seizure test; format: in vivo
[4] = test system: mice; assay: Maximal electroshock; format: in vivo; conditions: for MES model, number of animals protected from convulsions: qualitative
[5] = test system: mice; assay: Subcutaneous metrazol; format: in vivo; conditions: for scMET model, number of animals protected from convulsions: qualitative
[6] = test system: mice; assay: Corneal kindled mouse model of partial seizures; format: in vivo; conditions: i.p.
[7] = molecular target: T1, hA1AR; conditions: at 10 μM; relative to 44a (100%); ref Tosh et al.[20] or Gao et al. [21]; cited from earlier work
[8] = molecular target: T2, hA3AR (Homo sapiens, UniProt P0DMS8); assay: Radioligand binding at hA3AR; conditions: replacement of 2-Cl with 2-H
T2 sequence (P0DMS8 1-318): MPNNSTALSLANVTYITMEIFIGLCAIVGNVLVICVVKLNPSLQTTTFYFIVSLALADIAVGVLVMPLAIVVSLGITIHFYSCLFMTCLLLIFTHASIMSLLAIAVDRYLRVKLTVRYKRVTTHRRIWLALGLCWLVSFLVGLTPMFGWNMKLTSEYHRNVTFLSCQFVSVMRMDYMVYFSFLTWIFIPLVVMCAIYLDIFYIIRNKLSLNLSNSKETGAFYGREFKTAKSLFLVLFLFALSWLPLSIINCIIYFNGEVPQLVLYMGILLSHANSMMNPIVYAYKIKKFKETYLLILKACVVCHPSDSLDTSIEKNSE

[9] = in vivo; conditions: male, CF No 1 albino, mouse, ip
[10] = molecular target: rat A1AR; conditions: read-out: Kd at rat A1AR; cited from earlier work

Q: Which “AR subtype selectivity in binding (in words)” value (shortened to “AR subtype selectivity”) [1] does the source give for `O[C@@H]1[C@H](O)[C@@H]2C[C@@H]2[C@H]1n1cnc2c(NCC(C3CC3)C3CC3)nc(Cl)nc21` [Compound 7, (1R,2R,3S,4R,5S)-4-(2-Chloro-6-(2,2-dicyclopropylethylamino)-9H-purin-9-yl)bicyclo[3.1.0]hexane-2,3-diol] here?
A: nonselective

Q: For `O[C@@H]1[C@H](O)[C@@H]2C[C@@H]2[C@H]1n1cnc2c(NC(C3CC3)C3CC3)nc(Cl)nc21` [Compound 10], which “Agonist efficacy at A1AR (in words)” value [2] is on record?
A: full agonist

Q: What about the “6 Hz model, animals protected” value ([3]; 30 mg/kg i.p. (highest dose tested)) of the same molecule?
A: 7 out of 8

Q: And the “6 Hz model, mice protected” value ([3]; […] i.p.)?
A: 4 out of 8

Q: And the “Response in 6 Hz model (in words)” value ([3]; mice, i.p.)?
A: active

Q: What about the “MES model, number of animals protected from convulsions” value ([4]; 3 mg/kg i.p.) of the same molecule?
A: 1 out of 4 (3 mg/kg)

Q: And the “Response in MES model (in words)” value ([4]; i.p.)?
A: inactive

Q: What about the “scMET model, number of animals protected from convulsions” value ([5]; 3 mg/kg i.p.) of the same molecule?
A: No protection (3 mg/kg)

Q: What about the “Response in scMET model (in words)” value ([5]; i.p.) of the same molecule?
A: inactive

Q: And the “Corneal kindled mouse model EC50 (±SE)” value ([6]; at 1 h post injection)?
A: 1.79 ± 0.71 mg/kg

Q: What about the “Response in corneal kindling model (in words)” value ([6]; mice) of the same molecule?
A: active

Q: And the “% Inhibition, cyclic AMP, A1 (maximal efficacy)” value [7]?
A: 80–100%

Q: With `O[C@@H]1[C@H](O)[C@@H]2C[C@@H]2[C@H]1n1cnc2c(NC(C3CCCC3)C3CCCC3)nc(Cl)nc21` [Compound 11, (1R,2R,3S,4R,5S)-4-(2-Chloro-6-(dicyclopentylmethylamino)-9H-purin-9-yl)bicyclo[3.1.0]hexane-2,3-diol] as the molecule, how does the inhibition at 10 µM ([1]; read-out: % inhibition of radioligand binding, A1, at 10 μM, [3H]R-PIA, CHO cells) read?
A: < 50%

Q: With `CC(C)[C@@H](Nc1nc(Cl)nc2c1ncn2[C@H]1[C@H](O)[C@H](O)[C@@H]2C[C@@H]21)C1CC1` [Compound 14, (1R,2R,3S,4R,5S)-4-(2-Chloro-6-((R)-1-cyclopropyl-2-methyl-propylamino)-9H-purin-9-yl)bicyclo[3.1.0]hexane-2,3-diol] as the molecule, how does the “AR subtype selectivity” value [1] read?
A: moderately selective for the A1AR

Q: Which “AR subtype selectivity” value [1] does the source give for `CC(C)[C@H](Nc1nc(Cl)nc2c1ncn2[C@H]1[C@H](O)[C@H](O)[C@@H]2C[C@@H]21)C1CC1` [Compound 15, (1R,2R,3S,4R,5S)-4-(2-Chloro-6-((S)-1-cyclopropyl-2-methyl-propylamino)-9H-purin-9-yl)bicyclo[3.1.0]hexane-2,3-diol] here?
A: moderately selective for the A1AR

Q: With `O[C@@H]1[C@H](O)[C@@H]2C[C@@H]2[C@H]1n1cnc2c(N[C@@H](c3ccccc3)C3CC3)nc(Cl)nc21` [Compound 20, (1R,2R,3S,4R,5S)-4-(2-Chloro-6-((R)-cyclopropylphenylmethylamino)-9H-purin-9-yl)bicyclo[3.1.0]hexane-2,3-diol] as the molecule, how does the “Agonist efficacy at A1AR (in words)” value [2] read?
A: did not activate the A1AR

Q: And the “AR subtype selectivity” value [1]?
A: bound weakly at the three ARs

Q: For `O[C@@H]1[C@H](O)[C@@H]2C[C@@H]2[C@H]1n1cnc2c(N[C@H](c3ccccc3)C3CC3)nc(Cl)nc21` [Compound 21, (1R,2R,3S,4R,5S)-4-(2-Chloro-6-((S)-cyclopropylphenylmethylamino)-9H-purin-9-yl)bicyclo[3.1.0]hexane-2,3-diol], which “AR subtype selectivity” value [1] is on record?
A: bound weakly at the three ARs

Q: Which “Increase of affinity at the A3AR relative to compound 10” value [8] does the source give for `O[C@@H]1[C@H](O)[C@@H]2C[C@@H]2[C@H]1n1cnc2c(NC(C3CC3)C3CC3)ncnc21` [Compound 37a] here?
A: 28 fold

Q: For `NNc1nc(NC(C2CC2)C2CC2)c2ncn([C@H]3[C@H](O)[C@H](O)[C@@H]4C[C@@H]43)c2n1` [Compound 40], which “AR subtype selectivity” value [1] is on record?
A: nonselective

Q: With `COC(=O)c1cnn(-c2nc(NC(C3CC3)C3CC3)c3ncn([C@H]4[C@H](O)[C@H](O)[C@@H]5C[C@@H]54)c3n2)c1` [Compound 42] as the molecule, how does the “AR subtype selectivity” value [1] read?
A: weak nonselective

Q: Which “AR subtype selectivity” value [1] does the source give for `O=C(O)c1cnn(-c2nc(NC(C3CC3)C3CC3)c3ncn([C@H]4[C@H](O)[C@H](O)[C@@H]5C[C@@H]54)c3n2)c1` [Compound 43] here?
A: weak nonselective

Q: What does the source list for `OC[C@H]1O[C@@H](n2cnc3c(NC4CCCC4)nc(Cl)nc32)[C@H](O)[C@@H]1O` [Compound 44b, 2-chloro-N^6-cyclopentyladenosine, reference compound]?
A: MES model, number of animals protected from convulsions ([4]; 1 mg/kg i.p.): 1 out of 4 at (1 mg/kg); scMET model, number of animals protected from convulsions ([5]; 1 mg/kg i.p.): 1 out of 4 (1 mg/kg); TD50 at 1 h [9]: 0.84 mg/kg

Q: For `CCNC(=O)[C@H]1O[C@@H](n2cnc3c(N)ncnc32)[C@H](O)[C@@H]1O` [Compound 45, 5′-N-ethylcarboxamidoadenosine, reference compound], which “% Inhibition, cyclic AMP, A1 (maximal efficacy)” value ([2]; at 10 μM, relative to effect (100%) of full agonist 44a at 10 μM, CHO cells, n = 3–5) is on record?
A: 100±15%

Q: What about the “Agonist efficacy at A1AR (in words)” value [2] of the same molecule?
A: full agonist

Q: What does the source list for `NCCNC(=O)Cc1ccc(NC(=O)Cc2ccc(Nc3ncnc4c3ncn4[C@@H]3O[C@H](CO)[C@@H](O)[C@H]3O)cc2)cc1` [Compound 46, N^6-[4-[[[4-[[[(2-Aminoethyl)amino]carbonyl]methyl]anilino]carbonyl]methyl]phenyl]adenosine, reference compound]?
A: MES model, number of animals protected from convulsions ([4]; 2 mg/kg i.p.): 4 out of 8 (2mg/kg); scMET model, number of animals protected from convulsions ([5]; 1 mg/kg i.p.): 5 out of 8 (1 mg/kg)

Q: Which Kd [10] does the source give for `C[C@H](CSc1nc2ccccc2s1)Nc1nc(Cl)nc2c1ncn2[C@@H]1O[C@H](CO)[C@@H](O)[C@H]1O` [NNC-21-0136, N^6-[R-(2-benzothiazolyl)thio-2-propyl]-2-chloroadenosine] here?
A: 1.16 nM

From PMC3463139 (Journal of medicinal chemistry, 2012)
